Experimental data as given in EP2487185A1, “Hexapeptide with improved activity in the repair of cellular DNA of dermal cells” (Clinuvel Pharmaceuticals Limited, priority 2011, dated 2012).
Non-standard residues stand in square brackets, D forms with d. Nle = CCCC[C@H](N)C(=O)O

Experiments:
Melanocytes = experiment: DNA damage as measured by cyclobutane pyrimidine dimers (CPD), flow cytometry; format: cell-based, human; conditions: 48 h after 105 mJ/cm^2 UV; 10 nM α-MSH, 1 nM NDP-MSH or 1 nM CUV9900, 4 days prior to and 2 days after UV
Method: Cyclobutane pyrimidine dimers (CPD), the major determinant of UV induced DNA photoproducts, were detected using flow cytometry analysis.
Melanocytes were pretreated with 0 (control), 10 nM α-MSH or 1 nM NDP-MSH or 1 nM CUV9900 for 4 days prior to, and 2 days after exposure to 105 mJ/cm^2 UV, harvested 48 hours post irradiation, fixated with 70% ethanol, the DNA denatured with 1N HCl/0.2 mg/ml pepsin, then renaturated with sodium tetraborate. Melanocytes were blocked and incubated overnight at 4°C with the anti-CPD antibody (diluted 1:500; TDM-2 clone), then with goat anti-mouse IgG Alexa Fluor 488 (Invitrogen, Carlsbad CA) for 1 hour, and finally resuspended in PBS containing RNase A and propidium iodide. Melanocytes were analyzed on a Coulter EPICS XL flow cytometer (Beckman Coulter) using a 488nm argon ion laser A 525 band pass filter was used for the Alexa fluor 488 and a 620 band pass filter for the propidium iodide.

melanocyte strain 102b = experiment: Tyrosinase activity, dose-response, 6 days treatment; format: cell-based, human
Method: Cell numbers as well as tyrosinase activity were then determined. Tyrosinase activity was calculated first at activity/10^6 cells, and then as % of control. Twenty-four hours prior the end of the experiment, melanocytes received ^3H-tyrosinase (0.7 µCi/ml medium). The conditioned medium from each dish was collected to be assayed for tyrosinase activity, and the cell numbers were determined using a Coulter Counter. Triplicate dishes were included in each group, and duplicate samples from each dish were assayed for tyrosinase activity. Each data point is the mean percent of control of 6 determinations/group ±S.E.

human melanocytes = experiment: DNA damage as measured by 8-oxo-dG (FITC-conjugated 8-oxo-dG antibody immunofluorescence); format: cell-based; conditions: for 8-oxo-dG, Arbitrary units: 37 Celsius, mean fluorescence intensity
Text: DNA damage of cultured melanocytes following UV irradiation leads to consistent levels of photoproducts such as 8-oxo-dG. It is well established in the art (dermal carcinogenesis) that 8-oxodG is a major form of UV induced oxidative DNA damage, which results from the generation of reactive oxygen species (ROS). The induction of 8-oxodG by 8-oxo-dGTP can be inhibited by pyrophosphohydrolases (8-[…]) that convert it to 8-oxo-dGMP. To elucidate the involvement of 8-oxo-[…] in carcinogenesis, an assay of the 8-oxo-[…] activity was used (Sigma Chemical Co. (USA) as well as a conjugated 8-oxo-dG antibodies (OxoDNA Assay Kit; Calbiochem/EMD Biosciences). Melanocytes were plated onto coverslips, and treated 48 h thereafter for 4 days prior to, and immediately after irradiation with 0 or 105 mJ/cm^2 UV, 0.1-10.0 nM α-MSH, with 0 (control) or 0.1-10.0 nM α-MSH, or 0.001-10 nM NDP-MSH or 0.001-10.0 nM CUV 9900. Two hours after UV exposure, cells were fixated with 4% paraformaldehyde in PBS, hydrated in increasing concentrations of cold methanol, and permeabilized in 99% methanol for 30 min at 4 °C. Melanocytes were incubated in blocking solution at 37 °C for 1 h and then with FITC-conjugated 8-oxo-dG antibody, or mouse IgG as a negative control, at 37 °C for 1 h. The IgG controls were then incubated with FITC-conjugated anti-mouse antibody. Immunofluorescence was detected using a microscope with FITC filters. Data were expressed as the mean fluorescence intensity ±S.E., determined using the densitometry values from 6-8 randomly obtained images, using the computer assisted program Alpha Inotech Imaging System and the AlphaEase FC StandAlone Software.

melanocyte strain 1505b = experiment: Cell proliferation as a measure of stability; format: cell-based, human; conditions: for Cell proliferation, column 2: Table 3, 1nM, column 2, not defined; for Cell proliferation, Mean: Table 3, mean of columns 1-3
melanocytic strain 10.3c = experiment: UV-induced generation of hydrogen peroxide (luminol luminescence); format: cell-based, human; conditions: 1 nM, 105 mJ/cm^2 UV, 0, 30 and 45 minutes after UV
Text: With reference to Figs. 10 and 11, melanocytes were irradiated with a bank of FS 20 lamps, with 75% emission in the UVB, and 25% emission in the UVA spectra, with peak emission at 313 nm wavelength. Any emission of UVC rays from the UV source (FS 20 lamps) was blocked by Kodacel filter. Prior to irradiation, the culture medium was replaced by PBS, which was removed after UV exposure, and fresh medium added.
Melanocytes were irradiated with 105 mJ/cm^2 UV, and treated immediately while in PBS with 0, 1 nM α-MSH or 1 nM CUV9900. Generation of hydrogen peroxide, representative of reactive oxygen species (ROS), was determined by measuring the luminescence of luminol at 0, 30, and 45 min after UV exposure. Triplicate dishes were included in each group, and duplicate samples from each dish were used for measurement of hydrogen peroxide at each time point. Each data point represents the mean of 6 determinations/group ±S.E.

melanocytes strain 105c = experiment: cAMP levels (125I radioimmunoassay), dose-response; format: cell-based, human; conditions: 45 min, 0.1 mM IBMX
Method: (§1) Dose-response experiments were carried out on three melanocytic strains, namely strains 1513c, 1505b and 105c melanocytes were treated with 1 pM-10 nM CUV9900 or NDP-MSH, or with 0.1-10 nM MSH for 45 minutes in the presence of 0.1 mM isobutyl methylxanthine (IBMX). The results obtained from strain 1513c are shown in Fig. 3, the results obtained from strain 1505b are shown in Fig. 5a and the results obtained from strain 105c are shown in Fig. 5b. The strains 1505b and 1513c were obtained from the same human adult while the strain 105c was obtained from another human adult. Cyclic AMP is the second messenger for the melanocortin-1 receptor, and assessment is usually performed indicating cellular activity reflective of melanogenesis. Cyclic AMP levels were determined using ^125I-labeled radioimmunoassay kit (Perkin Elmer, Waltham, MA), in human melanocytes that were treated with 0 (control), 0.1-10.0 nM α-MSH, or 0.001-10 nM NDP-MSH or 0.001-10.0 nM CUV 9900 for 45 min. in the presence of 0.1 mM IBMX, a phosphodiesterase inhibitor to prevent cAMP degradation. Triplicate wells were included in each group, and duplicate samples from each well were assayed for cAMP levels. Each data point is the mean percent of control of 6 determinations/group ±S.E.

melanocytes strain 1505b = experiment: cAMP levels (125I radioimmunoassay), dose-response; format: cell-based, human; conditions: at 1 nM, 45 min, 0.1 mM IBMX
Method: as §1

[1] = 75%UVB 25% UVA, 105 mJ/cm^2, 2 h after UV

Substance	Absolute values of CPD products (CPD median fluorescence intensity) (Melanocytes)	concentration achieving equal maximal stimulation of tyrosinase (melanocyte strain 102b; 6 days treatment)	minimal effective dose (tyrosinase activity) (melanocyte strain 102b; 6 days treatment)	8-oxo-dG, Arbitrary units (human melanocytes; [1])	Cell proliferation, column 2 (melanocyte strain 1505b)	Cell proliferation, Mean (melanocyte strain 1505b)	UV-induced hydrogen peroxide generation (melanocytic strain 10.3c)	stimulation of tyrosinase activity, comparison with NDP-MSH (melanocyte strain 102b; subnanomolar concentrations)	less damage than UV alone (8-oxo-dG) (human melanocytes)	8-oxo-dG, Arbitrary units (human melanocytes; Source None (no UV irradiation))	elevation of cAMP, comparison with NDP (melanocytes strain 105c; 0.01 nM and 0.1 nM)	cAMP, comparison with MSH (melanocytes strain 105c; 0.1 nM, 1 nM and 10 nM)	cAMP, potency comparison (melanocytes strain 1505b)
Ac-Ser-Tyr-Ser-Nle-Glu-His-D-Phe-Arg-Trp-Gly-Lys-Pro-Val-NH2 [NDP-MSH, reference compound]	~12.5	1 nM	1 pM	39-40 a.u.	105 % of control	105.0 % of control	–	–	–	–	–	–	–
Ac-Nle-Glu His-D-Phe-Arg-Trp-NH2 (Ac-[Nle]EH[dF]RW-NH2; SMILES CCCC[C@H](NC(C)=O)C(=O)N[C@@H](CCC(=O)O)C(=O)N[C@@H](Cc1c[nH]cn1)C(=O)N[C@H](Cc1ccccc1)C(=O)N[C@@H](CCCNC(=N)N)C(=O)N[C@@H](Cc1c[nH]c2ccccc12)C(N)=O) [CUV9900, hexapeptide, alpha-MSH analogue]	~11.55	–	1 pM	38 a.u.	120 % of control	115.7 % of control	significant reduction of UV-induced hydrogen peroxide generation	greater stimulation of tyrosinase activity than NDP-MSH	120%	30 a.u.	less elevation of cAMP in comparison to 0.01 nM and 0.1 nM NDP	significantly higher than 0.1 nM, 1 nM and 10 nM MSH	more potent than MSH
